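Exposure lasted 48 hours, with cells grown in 96-well plates and compounds tested at five concentrations. The concentration for 50% growth inhibition is given as GI50.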 Active and inactive are the calls of the source. No stated cut-off is given here; in the data, active = GI50 up to about 1.1 µM and inactive = higher.
What was measured:
Assay in all cases: DTP human tumour cell line panel, 48 h
[1] = tested on: A549
[2] = tested on: CAKI-1
[3] = tested on: HCC 2998
[4] = tested on: HOP-62
[5] = tested on: Hs-578T
[6] = tested on: MDA-MB-231
[7] = tested on: MDA-MB-435
[8] = tested on: NCI-H522
[9] = tested on: OVCAR-3
[10] = tested on: OVCAR-4
[11] = tested on: OVCAR-5
[12] = tested on: OVCAR-8
[13] = tested on: PC-3
[14] = tested on: RPMI-8226
[15] = tested on: SF-295
[16] = tested on: SK-MEL-2
[17] = tested on: SN12C
[18] = tested on: SNB-75
[19] = tested on: U-251
[20] = tested on: MOLT-4

SMILES | GI50 [1] | GI50 [2] | GI50 [3] | GI50 [4] | GI50 [5] | GI50 [6] | GI50 [7] | GI50 [8] | GI50 [9] | GI50 [10] | GI50 [11] | GI50 [12] | GI50 [13] | GI50 [14] | GI50 [15] | GI50 [16] | GI50 [17] | GI50 [18] | GI50 [19] | GI50 [20]
Cn1c(=O)c2[nH]c(CCC(=O)O)nc2n(C)c1=O | > 100 µM (inactive) | > 100 µM (inactive) | > 100 µM (inactive) | > 100 µM (inactive) | > 100 µM (inactive) | > 100 µM (inactive) | > 100 µM (inactive) | > 100 µM (inactive) | > 100 µM (inactive) | > 100 µM (inactive) | > 100 µM (inactive) | > 100 µM (inactive) | > 100 µM (inactive) | > 100 µM (inactive) | > 100 µM (inactive) | > 100 µM (inactive) | > 100 µM (inactive) | > 100 µM (inactive) | > 100 µM (inactive) | 
c1cc(CNCCN2CCNCC2)ccn1 | > 100 µM (inactive) | > 100 µM (inactive) |  | > 100 µM (inactive) | > 100 µM (inactive) | > 100 µM (inactive) | > 100 µM (inactive) | > 100 µM (inactive) | > 100 µM (inactive) | > 100 µM (inactive) | > 100 µM (inactive) | > 100 µM (inactive) | > 100 µM (inactive) | > 100 µM (inactive) | > 100 µM (inactive) | > 100 µM (inactive) | > 100 µM (inactive) | > 100 µM (inactive) | > 100 µM (inactive) | > 100 µM (inactive)
Cc1cn2c(/C=N/NC(=N)N)c(-c3cccc([N+](=O)[O-])c3)nc2s1 | 1.95 µM (inactive) | 2.42 µM (inactive) | 0.839 µM (active) | 1.38 µM (inactive) | 2.38 µM (inactive) | 1.41 µM (inactive) | 1.82 µM (inactive) | 2.08 µM (inactive) | 1.26 µM (inactive) | 0.153 µM (active) | 2.07 µM (inactive) | 1.78 µM (inactive) | 1.74 µM (inactive) | 3.2 µM (inactive) | 1.81 µM (inactive) | 1.96 µM (inactive) | 1.71 µM (inactive) |  | 1.6 µM (inactive) | 1.77 µM (inactive)
CC(=O)NCCCCN(CCCNC(C)=O)C(=O)CNS(=O)(=O)c1cccc2c(N(C)C)cccc12 | > 100 µM (inactive) |  | > 100 µM (inactive) | > 100 µM (inactive) | > 100 µM (inactive) | > 100 µM (inactive) | > 100 µM (inactive) | > 100 µM (inactive) | > 100 µM (inactive) | > 100 µM (inactive) | > 100 µM (inactive) |  | > 100 µM (inactive) | > 100 µM (inactive) | > 100 µM (inactive) | > 100 µM (inactive) | > 100 µM (inactive) |  | > 100 µM (inactive) | > 100 µM (inactive)
C[C@@H](Cl)[C@H]1CCCN(Cc2ccc(Br)cc2)C1 | > 12.5 µM (inactive) | > 12.5 µM (inactive) | > 12.5 µM (inactive) | > 12.5 µM (inactive) | > 12.5 µM (inactive) | > 12.5 µM (inactive) | > 12.5 µM (inactive) | > 12.5 µM (inactive) | > 12.5 µM (inactive) | > 12.5 µM (inactive) | > 12.5 µM (inactive) | > 12.5 µM (inactive) | > 12.5 µM (inactive) | > 12.5 µM (inactive) | > 12.5 µM (inactive) | > 12.5 µM (inactive) |  | > 12.5 µM (inactive) | > 12.5 µM (inactive) | > 12.5 µM (inactive)
CCOC(=O)c1ccc(/N=C2/C(=S)N(c3ccc(C(=O)OCC)cc3)C(=N)N2/N=C/c2ccccc2)cc1 | 30 µM (inactive) | 13.9 µM (inactive) | 21.8 µM (inactive) | > 10 µM (inactive) | 47 µM (inactive) | 8.05 µM (inactive) | > 10 µM (inactive) | 2.34 µM (inactive) | 13.1 µM (inactive) |  | 20 µM (inactive) | 28.2 µM (inactive) | 2.61 µM (inactive) | 4.13 µM (inactive) | 26.7 µM (inactive) | 26.1 µM (inactive) | 17.9 µM (inactive) |  | > 10 µM (inactive) | 
C=C1C(=O)C2=C[C@H]1C[C@H](O)C(=O)[C@]1(C)CCCC(C)(C)[C@H]1C[C@H]2O | 0.665 µM (active) | 1.48 µM (inactive) |  | 12.9 µM (inactive) | 2.76 µM (inactive) | 1.32 µM (inactive) | 2.65 µM (inactive) | 0.0428 µM (active) | 2.02 µM (inactive) | 3.94 µM (inactive) | 1.93 µM (inactive) | 2.33 µM (inactive) | 1.92 µM (inactive) | 0.235 µM (active) | 7.94 µM (inactive) | 7.19 µM (inactive) | 1.77 µM (inactive) | 5.58 µM (inactive) | 1.32 µM (inactive) | 0.979 µM (active)
Cc1cc2nc3[nH]nc(N)c3nc2cc1C | > 100 µM (inactive) | > 100 µM (inactive) | > 100 µM (inactive) | 70 µM (inactive) | 52.7 µM (inactive) | > 100 µM (inactive) | > 100 µM (inactive) | > 100 µM (inactive) |  | > 100 µM (inactive) | > 100 µM (inactive) | 88.7 µM (inactive) | > 100 µM (inactive) | > 100 µM (inactive) | > 100 µM (inactive) | > 100 µM (inactive) | > 100 µM (inactive) | 26.2 µM (inactive) | > 100 µM (inactive) | > 100 µM (inactive)
O=[N+]([O-])c1ccc(C2c3c(O)nc(O)nc3Oc3nc(O)nc(O)c32)cc1 | > 100 µM (inactive) | > 100 µM (inactive) |  | > 100 µM (inactive) | > 100 µM (inactive) | > 100 µM (inactive) | > 100 µM (inactive) | 17.9 µM (inactive) | > 100 µM (inactive) | > 100 µM (inactive) | > 100 µM (inactive) | > 100 µM (inactive) | > 100 µM (inactive) | 28.8 µM (inactive) | > 100 µM (inactive) | > 100 µM (inactive) | > 100 µM (inactive) |  | > 100 µM (inactive) | 
O=C(O)C(=Cc1ccc(-c2ccc([N+](=O)[O-])cc2)o1)C(=O)O | > 100 µM (inactive) | > 100 µM (inactive) | > 100 µM (inactive) | < 0.01 µM (active) | > 100 µM (inactive) | > 100 µM (inactive) | > 100 µM (inactive) | > 100 µM (inactive) | > 100 µM (inactive) |  | > 100 µM (inactive) | > 100 µM (inactive) | > 100 µM (inactive) | > 100 µM (inactive) | > 100 µM (inactive) | > 100 µM (inactive) | > 100 µM (inactive) | > 100 µM (inactive) | > 100 µM (inactive) | > 100 µM (inactive)
C[C@H](CC[C@@H](O)C(C)(C)O)[C@H]1CC[C@@]2(C)[C@@H]3CC=C4[C@@H](CC[C@H](O)C4(C)C)[C@]3(C)C(=O)C[C@]12C [BRYODULCOSIGENIN] | 27.7 µM (inactive) |  |  | > 50 µM (inactive) | 45.7 µM (inactive) | > 50 µM (inactive) | 37.6 µM (inactive) | 31.7 µM (inactive) | > 50 µM (inactive) | > 50 µM (inactive) | 16.8 µM (inactive) | 27.4 µM (inactive) | 13.7 µM (inactive) | 13.3 µM (inactive) | > 50 µM (inactive) | 40.7 µM (inactive) | 28.6 µM (inactive) |  | 38.5 µM (inactive) | 19.5 µM (inactive)

Source: ChEMBL document CHEMBL1201862, “PubChem BioAssay data set” (2004)
